According to US10750729B2, “Pig for atrioventricular block model, monkey for atrioventricular block model, guinea pig for atrioventricular block model, and use thereof” (Toho University, priority 2012, dated 2020):

Columns and labels:
[1] = system: Guinea pigs (Hartley); assay: Test Example 3-2: electrocardiogram and aortic pressure of halothane-anesthetized guinea pigs (BAF312); type: in vivo; conditions: guinea pig
Experimental: Guinea pigs (Hartley, body weight: 420 g to 650 g, male, obtained from Japan SLC, Inc.) were each anesthetized by intraperitoneally administering thereto sodium thiopental (product of Mitsubishi Tanabe Pharma Corporation) at 50 mg/kg. Next, a tracheal cannula was inserted into each of the guinea pigs. While their body temperature was being maintained at 37° C. with a warming pad, the guinea pigs were allowed to inhale 100% by volume oxygen and 1% by volume vaporized halothane (product of Takeda Pharmaceutical Company Limited.) using an artificial respirator for experimental animals (SN-480-7; product of shimano Co., Ltd.). Here, the artificial respirator for experimental animals was set to a tidal volume of 10 mL/kg and a respiration rate of 60 strokes/min. Next, a cannula for drug administration was inserted to their left femoral vein. In addition, a heparinized catheter for monitoring the blood pressure was inserted to the aorta through the left femoral […]. Then, ECG standard limb II leads was continuously recorded.
Each of the guinea pigs (n=12) of Example 3 was recorded for an electrocardiogram before administration of a drug or a solvent.
BAF312 (product of Meiji Seika Pharma Co., Ltd.) was dissolved in dimethyl sulfoxide (hereinafter may be referred to as “DMSO”; product of Sigma-Aldrich Inc.) so as to have a concentration of 0.003 mg/mL.
After the evaluation of base control, the cannula for drug administration was inserted, and the above-prepared BAF312 solution was intravenously administered to each of the guinea pigs (n=4) of Example 3 for 10 min at a dose of 0.001 mg/kg. These guinea pigs were evaluated for parameters by the following evaluation methods at 5 min, 10 min, 15 min, 20 min, 30 min, 45 min or 60 min after the administration of the BAF312 solution.
BAF312 (product of Meiji Seika Pharma Co., Ltd.) was dissolved in DMSO (product of Sigma-Aldrich Inc.) so as to have a concentration of 0.03 mg/mL.
After the evaluation of base control, the cannula for drug administration was inserted, and the above-prepared BAF312 solution was intravenously administered to each of the guinea pigs (n=4) of Example 3 for 10 min at a dose of 0.01 mg/kg. These guinea pigs were evaluated for parameters by the following evaluation methods at 5 min, 10 min, 15 min, 20 min, 30 min, 45 min or 60 min after the administration of the BAF312 solution.
The aortic pressure and the electrocardiogram were monitored using a polygraph system (RM-6000, product of NIHON KOHDEN Co. Ltd.) and analyzed with a full-automated analysis system in real time (WinVAS ver. 3, 1.1R03; product of Physio-Tech Co., Ltd).
Parameters of the electrocardiogram were measured three times, and the obtained values were averaged. Atrial rate was calculated from PP interval of the electrocardiogram. Ventricular rate was calculated from RR interval of the electrocardiogram.
The measurements in FIGS. 6A to 6E are expressed as mean±SE (n=4). The difference between the parameters was evaluated with one-way repeated measures analysis of variance (ANOVA). It was considered that p<0.05 is statistically significant. In FIG. 6A to 6C and FIG. 6E, “white circle,” “white square” and “white triangle” each mean absence of a significant difference relative to the value of the evaluation of base control (C), and “black circle” means presence of a significant difference relative to the value of the evaluation of base control (C).
Also, in FIG. 6D, “white circle” means absence of development of atrioventricular block or presence of development of first-degree atrioventricular block, “white triangle” means presence of development of advanced atrioventricular block, “x-mark” means presence of development of third-degree atrioventricular block (complete atrioventricular block), and #1 to 4 refer to each individual.

[2] = system: rat; conditions: cited from earlier work
[3] = high-dose 0.01 mg/kg/10 min i.v.
[4] = low-dose 0.001 mg/kg/10 min i.v.
[5] = low-dose 0.001 mg/kg/10 min i.v., from 5 min to 60 min

Structure (SMILES) | change in QRS width [1, 3] | change in QT interval [1, 3] | change in atrial rate [1, 3] | change in blood pressure (MBP) [1, 3] | correspondence of P wave and R wave in the electrocardiogram ([1]; high-dose 0.01 mg/kg/10 min i.v., 45 min after start) | change in PR interval ([1]; high-dose 0.01 mg/kg/10 min i.v., before development of atrioventricular block) | change in ventricular rate ([1]; high-dose 0.01 mg/kg/10 min i.v., from 10 min to 15 min) | individuals that developed complete atrioventricular block ([1]; high-dose 0.01 mg/kg/10 min i.v., n=4) | change in PR interval [1, 4] | change in QRS width [1, 4] | change in QT interval [1, 4] | change in blood pressure (MBP) [1, 4] | change in atrial rate [1, 5] | change in ventricular rate [1, 5] | prolongation of PR interval [2]
CCc1cc(/C(C)=N/OCc2ccc(C3CCCCC3)c(C(F)(F)F)c2)ccc1CN1CC(C(=O)O)C1 [BAF312, siponimod] | no significant change | no significant change | no significant change | increase | the atrium and the ventricle are contracted independently of each other at their own individual rhythms | prolonged | decrease | all of the four individuals | prolongation of PR interval was observed | no significant change | no significant change | increase | decrease | decrease | –
CCCCCCCCCCCCC/C=C/[C@@H](O)[C@@H](N)COP(=O)(O)O [sphingosine-1-phosphate] | – | – | – | – | – | – | – | – | – | – | – | – | – | – | not observed
